# Key:
# [1] = Serum chemistry in monkeys, 2 mg/kg 30-min IV infusion; type: in vivo, Cynomolgus monkeys
# Procedure: (§1) TH 3423 and TH 3424 were tested in […] naïve monkeys (1 male and one female for each compound at 2 mg/kg) with 30-min intravenous infusion, TK sampling: on Day 1 and Day 15: 0.25, 0.5, 0.75, 1 and 2 hr post infusion initiation. Serum chemistry and hematology: pre-dose (Day 1), day 5, day 8 (pre-dose), day 15 (pre-dose), day 22 and day 28. Clinical observation: Daily during the study, total 35 days. Food consumption: Daily during the study, total 35 days. Bodyweight measurement: Twice weekly for five weeks.
# [2] = Body weight in monkeys, 2 mg/kg 30-min IV infusion; type: in vivo, Cynomolgus monkeys
# Procedure: as §1
compound,measurement,setting,value
"C[C@H](OP(=O)(N1CC1)N1CC1)c1ccc([N+](=O)[O-])c(Oc2cccc(C(=O)N(C)C)c2)c1 (single isomer, unassigned) [TH3424]",A/G,"[1]; female, Day 1 (pre-dose)",1.9
same,ALB,"[1]; female, Day 1 (pre-dose)",46.1 g/L
same,ALP,"[1]; female, Day 1 (pre-dose)",134.2 U/L
same,ALT,"[1]; female, Day 1 (pre-dose)",61.6 U/L
same,AST,"[1]; female, Day 1 (pre-dose)",23.7 U/L
same,BUN,"[1]; female, Day 1 (pre-dose)",3.43 mM
same,CK,"[1]; female, Day 1 (pre-dose)",202 U/L
same,CREA,"[1]; female, Day 1 (pre-dose)",61 µM
same,Ca,"[1]; female, Day 1 (pre-dose)",2.51 mmol/L
same,GLB,"[1]; female, Day 1 (pre-dose)",24.1 g/L
same,Glu,"[1]; female, Day 1 (pre-dose)",3.34 mM
same,K,"[1]; female, Day 1 (pre-dose)",5.77 mmol/L
same,Na,"[1]; female, Day 1 (pre-dose)",143 mmol/L
same,TBIL,"[1]; female, Day 1 (pre-dose)",1.5 µM
same,TC,"[1]; female, Day 1 (pre-dose)",3.04 mM
same,TG,"[1]; female, Day 1 (pre-dose)",0.17 mmol/L
same,TP,"[1]; female, Day 1 (pre-dose)",70.2 g/L
same,γ-GT,"[1]; female, Day 1 (pre-dose)",47.3 U/L
same,A/G,"[1]; female, Day 8 (pre-dose)",1.4
same,ALB,"[1]; female, Day 8 (pre-dose)",41.8 g/L
same,ALP,"[1]; female, Day 8 (pre-dose)",200.2 U/L
same,ALT,"[1]; female, Day 8 (pre-dose)",37.7 U/L
same,AST,"[1]; female, Day 8 (pre-dose)",43.1 U/L
same,BUN,"[1]; female, Day 8 (pre-dose)",5.63 mM
same,CK,"[1]; female, Day 8 (pre-dose)",190 U/L
same,CREA,"[1]; female, Day 8 (pre-dose)",88 µM
same,Ca,"[1]; female, Day 8 (pre-dose)",2.37 mmol/L
same,GLB,"[1]; female, Day 8 (pre-dose)",30.6 g/L
same,Glu,"[1]; female, Day 8 (pre-dose)",5.91 mM
same,K,"[1]; female, Day 8 (pre-dose)",4.33 mmol/L
same,Na,"[1]; female, Day 8 (pre-dose)",143 mmol/L
same,TBIL,"[1]; female, Day 8 (pre-dose)",0.8 µM
same,TC,"[1]; female, Day 8 (pre-dose)",2.91 mM
same,TG,"[1]; female, Day 8 (pre-dose)",0.63 mmol/L
same,TP,"[1]; female, Day 8 (pre-dose)",72.4 g/L
same,γ-GT,"[1]; female, Day 8 (pre-dose)",36.2 U/L
same,A/G,"[1]; female, Day 15 (pre-dose)",1.6
same,ALB,"[1]; female, Day 15 (pre-dose)",38.5 g/L
same,ALP,"[1]; female, Day 15 (pre-dose)",151.5 U/L
same,ALT,"[1]; female, Day 15 (pre-dose)",31.9 U/L
same,AST,"[1]; female, Day 15 (pre-dose)",23.8 U/L
same,BUN,"[1]; female, Day 15 (pre-dose)",3.87 mM
same,CK,"[1]; female, Day 15 (pre-dose)",78 U/L
same,CREA,"[1]; female, Day 15 (pre-dose)",46 µM
same,Ca,"[1]; female, Day 15 (pre-dose)",2.2 mmol/L
same,GLB,"[1]; female, Day 15 (pre-dose)",23.8 g/L
same,Glu,"[1]; female, Day 15 (pre-dose)",2.8 mM
same,K,"[1]; female, Day 15 (pre-dose)",5.58 mmol/L
same,Na,"[1]; female, Day 15 (pre-dose)",132.59 mmol/L
same,TBIL,"[1]; female, Day 15 (pre-dose)",4.0 µM
same,TC,"[1]; female, Day 15 (pre-dose)",2.23 mM
same,TG,"[1]; female, Day 15 (pre-dose)",0.94 mmol/L
same,TP,"[1]; female, Day 15 (pre-dose)",62.3 g/L
same,γ-GT,"[1]; female, Day 15 (pre-dose)",34.2 U/L
same,A/G,"[1]; male, Day 1 (pre-dose)",2.5
same,ALB,"[1]; male, Day 1 (pre-dose)",50.5 g/L
same,ALP,"[1]; male, Day 1 (pre-dose)",287.5 U/L
same,ALT,"[1]; male, Day 1 (pre-dose)",43.0 U/L
same,AST,"[1]; male, Day 1 (pre-dose)",40.2 U/L
same,BUN,"[1]; male, Day 1 (pre-dose)",4.89 mM
same,CK,"[1]; male, Day 1 (pre-dose)",221 U/L
same,CREA,"[1]; male, Day 1 (pre-dose)",91 µM
same,Ca,"[1]; male, Day 1 (pre-dose)",2.38 mmol/L
same,GLB,"[1]; male, Day 1 (pre-dose)",19.9 g/L
same,Glu,"[1]; male, Day 1 (pre-dose)",4.5 mM
same,K,"[1]; male, Day 1 (pre-dose)",4.31 mmol/L
same,Na,"[1]; male, Day 1 (pre-dose)",147 mmol/L
same,TBIL,"[1]; male, Day 1 (pre-dose)",2.1 µM
same,TC,"[1]; male, Day 1 (pre-dose)",3.22 mM
same,TG,"[1]; male, Day 1 (pre-dose)",0.38 mmol/L
same,TP,"[1]; male, Day 1 (pre-dose)",70.4 g/L
same,γ-GT,"[1]; male, Day 1 (pre-dose)",62.2 U/L
same,A/G,"[1]; male, Day 8 (pre-dose)",2.0
same,ALB,"[1]; male, Day 8 (pre-dose)",43.3 g/L
same,ALP,"[1]; male, Day 8 (pre-dose)",225.2 U/L
same,ALT,"[1]; male, Day 8 (pre-dose)",31.2 U/L
same,AST,"[1]; male, Day 8 (pre-dose)",31.2 U/L
same,BUN,"[1]; male, Day 8 (pre-dose)",4.8 mM
same,CK,"[1]; male, Day 8 (pre-dose)",83 U/L
same,CREA,"[1]; male, Day 8 (pre-dose)",96 µM
same,Ca,"[1]; male, Day 8 (pre-dose)",2.33 mmol/L
same,GLB,"[1]; male, Day 8 (pre-dose)",21.8 g/L
same,Glu,"[1]; male, Day 8 (pre-dose)",4.15 mM
same,K,"[1]; male, Day 8 (pre-dose)",4.51 mmol/L
same,Na,"[1]; male, Day 8 (pre-dose)",147 mmol/L
same,TBIL,"[1]; male, Day 8 (pre-dose)",3.6 µM
same,TC,"[1]; male, Day 8 (pre-dose)",3.06 mM
same,TG,"[1]; male, Day 8 (pre-dose)",0.66 mmol/L
same,TP,"[1]; male, Day 8 (pre-dose)",65.1 g/L
same,γ-GT,"[1]; male, Day 8 (pre-dose)",44.9 U/L
same,A/G,"[1]; male, Day 15 (pre-dose)",2.2
same,ALB,"[1]; male, Day 15 (pre-dose)",36.8 g/L
same,ALP,"[1]; male, Day 15 (pre-dose)",174.8 U/L
same,ALT,"[1]; male, Day 15 (pre-dose)",45.0 U/L
same,AST,"[1]; male, Day 15 (pre-dose)",73.5 U/L
same,BUN,"[1]; male, Day 15 (pre-dose)",9.66 mM
same,CK,"[1]; male, Day 15 (pre-dose)",172 U/L
same,CREA,"[1]; male, Day 15 (pre-dose)",58 µM
same,Ca,"[1]; male, Day 15 (pre-dose)",2.14 mmol/L
same,GLB,"[1]; male, Day 15 (pre-dose)",16.4 g/L
same,Glu,"[1]; male, Day 15 (pre-dose)",1.47 mM
same,K,"[1]; male, Day 15 (pre-dose)",6.05 mmol/L
same,Na,"[1]; male, Day 15 (pre-dose)",136.14 mmol/L
same,TBIL,"[1]; male, Day 15 (pre-dose)",2.1 µM
same,TC,"[1]; male, Day 15 (pre-dose)",1.44 mM
same,TG,"[1]; male, Day 15 (pre-dose)",0.41 mmol/L
same,TP,"[1]; male, Day 15 (pre-dose)",53.2 g/L
same,γ-GT,"[1]; male, Day 15 (pre-dose)",36.7 U/L
same,body weight,"[2]; Day 1, male",3.40
same,body weight,"[2]; Day 4, male",3.30
same,body weight,"[2]; Day 8, Mean",3.20
